According to paper PMC7180484 (Molecules, 2020):

Key:
PC12 cells [1] = test: Aβ42 induced neurotoxicity in PC12 cells (MTT assay); conditions: 24 h
Method: Cells were seeded in 96 well plate in log phase of growth at concentration 5 × 10^5 cells per well. […] MTT solution was added to the wells and incubated in dark, for the live cells to convert the tetrazolium salt in purple formazan crystals. The formazan crystals were dissolved using DMSO and absorbance was measured at 570 nm. Relative survival percentage of PC12 cells was calculated compared to control (PC12 cells only). All measurements were performed in triplicates and all experiments were repeated thrice individually.

PC12 cells [2] = test: Neuroprotection against H2O2 induced oxidative stress cytotoxicity in PC12 cells (MTT assay); format: cell-based, rat; conditions: compound 40 μM; H2O2 200 µM; negative control 31% viability
Method: Cell viability was determined through trypan blue dye exclusion assay and cells were seeded to 96 well tissue culture plate at a 5 × 10^5 cells/well concentration. Pre-incubation with compounds were given to PC12 cells prior to inducing H2O2 cytotoxicity for 18 h. MTT was added to the well at 5 mg/mL concentration and incubated in the dark for enzymatic reaction by live cells for 2 h. DMSO was added to well to dissolve formazan crystals and absorbance was recorded at 570 nm. PC12 cells relative survival was calculated compared to control (PC12 cells only).

AChE = molecular target: T1, AChE (Electrophorus electricus, UniProt O42275); test: biochemical; conditions: for SI (selectivity index): AChE selectivity over BuChE, IC50 BuChE/IC50 AChE; for IC50: mean ± SD, three replicate determinations
T1 construct: acetylcholinesterase from electric eel; purchased Sigma Aldrich, India
Description: (§1) MAO-B inhibition kit by Biovision. BACE-1 activity assay kit by Sigma Aldrich. […] PC12 (rat pheochromocytoma) cell line was obtained from NCCS, Pune, India. All other reagents used were of analytical grade. All preparations used in tissue culture experiments were filtered through 0.45 µm Axiva 25 mm CA filter. Ethical approval was obtained from GGS Indrapratha University for all the cell culture work done in proper confined facilities.
(§2) Five microliters of enzyme (AChE and BuChE) solution at 0.03 U/mL final assay concentration; 200 μL of phosphate buffer (pH 8); 5 μL of DTNB (0.3 mM); and 5 μL of test compounds were pre-incubated for 15 min at RT. The reaction was initiated by adding 5 μL of substrate (ATChI and BuTChI) at a final concentration of 0.5 mM. The control for relative absorbance consisted of the buffer in place of the test compounds and the enzyme and substrate blank were devoid of enzyme and the substrate, respectively.

BuChE = molecular target: T2, BuChE (Equus caballus, UniProt P81908); test: biochemical; conditions: mean ± SD, three replicate determinations
T2 construct: butyrylcholinesterase from equine serum; purchased Sigma Aldrich, India; host or cells: equine serum
Description: as §1, §2

BACE-1 = molecular target: T3, BACE-1 (Homo sapiens, UniProt P56817); test: In vitro BACE-1 enzyme inhibition assay (FRET kit); format: biochemical
T3 construct: purchased Sigma Aldrich
Method: BACE-1 (EC 3.4.23.46) activity inhibition was assayed using FRET (fluorescence resonance energy transfer) kit (Sigma Aldrich, New Delhi, India). With all reaction components at RT, 50 μM substrate was added to 75 μL assay buffer containing RES and AJM (25, 50, 100 μM) in the microtiter plate. Reaction was initiated by the addition of 0.03 U BACE-1 enzyme in the well and zero minute fluorescence was recorded (Ex 350 nm, Em 405 nm). After 2 h incubation in dark at 37 °C, reaction fluorescence was recorded every one hour for next three hours. Relative fluorescence inhibition was calculated from zero minute fluorescence reading as control. Three individual experiments were performed.

MAO-B = molecular target: T4, MAO-B (Homo sapiens, UniProt P27338); test: MAO-B inhibition assay (Biovision fluorometric kit); format: biochemical
T4 construct: purchased Biovision
T4 sequence (P27338 1-520): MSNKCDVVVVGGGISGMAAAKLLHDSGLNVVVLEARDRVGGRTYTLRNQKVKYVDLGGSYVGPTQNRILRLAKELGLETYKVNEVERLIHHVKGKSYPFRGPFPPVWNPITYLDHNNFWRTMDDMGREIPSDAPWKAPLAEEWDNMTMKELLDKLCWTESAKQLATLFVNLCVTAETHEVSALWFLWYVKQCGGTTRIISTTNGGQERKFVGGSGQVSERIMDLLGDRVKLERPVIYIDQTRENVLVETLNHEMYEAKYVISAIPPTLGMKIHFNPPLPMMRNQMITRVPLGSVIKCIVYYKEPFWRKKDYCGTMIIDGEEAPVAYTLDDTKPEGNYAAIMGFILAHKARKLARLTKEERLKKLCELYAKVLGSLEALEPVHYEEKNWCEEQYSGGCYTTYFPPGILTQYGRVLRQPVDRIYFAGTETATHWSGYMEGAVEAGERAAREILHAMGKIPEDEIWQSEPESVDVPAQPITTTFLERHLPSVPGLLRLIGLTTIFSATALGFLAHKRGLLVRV
Method: MAO-B (EC 1.4.3.4) activity inhibition was assayed using Biovision inhibition screening kit (fluorometric). With all reaction components at room temperature, 0.2 U enzyme was pre-incubated with compounds under study and incubated for 10 min. Working substrate was prepared fresh by adding developer and oxired probe with assay buffer according to kit instructions. Substrate was added to the reaction and incubated for 10 min; zero-minute fluorescence was recorded (Ex 535 nm, Em 587 nm) to serve as control for relative fluorescence inhibition calculation.

Aβ42 [3] = molecular target: T5, Aβ42 (Homo sapiens, UniProt P05067); test: Congo red dye binding (red shift) assay with Aβ42 fibrils; conditions: CR only 490 nm, Aβ42 only 530 nm
Method: Aβ42 alone sample was used as control. Samples were incubated at 37 °C at 260 rpm for 48 h in the shaker incubator.
Congo red (200 μM) was dissolved in a 50 mM phosphate buffer (pH 7.4) consisting of 50 mM NaCl and 10% ethanol and filtered through 0.45 µm CA membrane filter. The Aβ42 concentration was fixed at 10 µM in the reaction mixture. […] The absorbance spectra (400–650 nm) of the samples were recorded with a UV-visible spectrophotometer [27]. All experiments had three technological and three biological repeats.

Aβ42 [4] = molecular target: T5, Aβ42; test: ThT fluorescence assay of Aβ42 fibril formation (anti-aggregation); format: biochemical; design: Aβ42—Amyloid beta 1-42 residues; purchased Link biotech (named in a list that ends 'purchased from Sigma Aldrich, India'); conditions: vs control (Aβ42 only), 48 h; for inhibition of Aβ42 aggregation (ThT fluorescence): at 44 μM
Method: Aβ42 samples were incubated with or without compounds at different concentrations, after 48 h of fibril formation samples from each experimental set were withdrawn and mixed with ThT in opaque micro titer plate. The reactions were then incubated in dark at 37 °C for 30 min for ThT probe to bind the formed amyloid fibrils. The ThT was excited at 450 nm and spectra were recorded from 400 to 650 nm.

Aβ42 [5] = molecular target: T5, Aβ42; test: Circular dichroism spectroscopy of Aβ42 secondary structure (BeStSel); format: biochemical; design: Aβ42—Amyloid beta 1-42 residues; purchased Link biotech (named in a list that ends 'purchased from Sigma Aldrich, India'); conditions: for Secondary structure content: Others / Secondary structure content: α-helix / Secondary structure content: Turn / Secondary structure content: β-sheet (parallel) / Secondary structure content: β-sheet (antiparallel): Aβ42 22 μM + compound 22 μM, BeStSel from CD spectra; for Secondary structure content: Others / Secondary structure content: α-helix: Aβ42 control 0.0; for Secondary structure content: Turn: Aβ42 control 8.6; for Secondary structure content: β-sheet (parallel): Aβ42 control 16.5; for Secondary structure content: β-sheet (antiparallel): Aβ42 control 74.9; for inhibition in β-sheet formation: compared to control (Aβ42 only), CD, 48 h incubation
Method: Secondary structure of Aβ42 peptides were recorded as far UV circular dichroism spectra using Chirascan (Applied PhotoPhysics, New Delhi, India) instrument and software. 22 μM Aβ42 samples (22 μM Aβ42 alone and Aβ42 with RES and AJM) were mixed well ensuring a homogenous suspension and transferred to quartz cell for CD spectra scanning. CD spectra was recorded from 200–260 nm at RT using a bandwidth of 1.0 nm, times per point 0.5 sec, a step interval of 1 nm, and 10 mm path length. Five scans of each sample were measured and averaged. Averaged control buffer scans were subtracted from the sample spectra. The results of CD measurement were plotted as graph between measured ellipticity (millidegree) and wavelength (nm). The secondary structure contents (α-helix, β-sheet, turn, and random coil) of the Aβ42 peptide samples were estimated from the CD spectra using the CD Pro software. Relative percentage of reduced β-sheet content in Aβ42 samples treated with RES and AJM was calculated using BeStSel software.

Aβ42 [6] = molecular target: T5, Aβ42; test: Transmission electron microscopy of Aβ42 aggregates; design: Aβ42—Amyloid beta 1-42 residues; purchased Link biotech (named in a list that ends 'purchased from Sigma Aldrich, India'); conditions: Aβ42 + 44 μM compound, 37 °C, 48 h; control: abundant long, branched, dense fibrils
Method: 5 μL Aβ42 prepared fibril samples (22 μM) Aβ42 alone and Aβ42 with RES and AJM) were loaded on carbon stabilized, formvar coated grid for 40 sec. Ashless filter paper was used to wipe out extra sample from the edges of the grid. Loaded grid was negatively stained with 1% uranyl acetate for 20 sec and air-dried. Grid was then examined and photographed on JEOL 2100F transmission electron microscope.

T1 sequence (O42275 24-633): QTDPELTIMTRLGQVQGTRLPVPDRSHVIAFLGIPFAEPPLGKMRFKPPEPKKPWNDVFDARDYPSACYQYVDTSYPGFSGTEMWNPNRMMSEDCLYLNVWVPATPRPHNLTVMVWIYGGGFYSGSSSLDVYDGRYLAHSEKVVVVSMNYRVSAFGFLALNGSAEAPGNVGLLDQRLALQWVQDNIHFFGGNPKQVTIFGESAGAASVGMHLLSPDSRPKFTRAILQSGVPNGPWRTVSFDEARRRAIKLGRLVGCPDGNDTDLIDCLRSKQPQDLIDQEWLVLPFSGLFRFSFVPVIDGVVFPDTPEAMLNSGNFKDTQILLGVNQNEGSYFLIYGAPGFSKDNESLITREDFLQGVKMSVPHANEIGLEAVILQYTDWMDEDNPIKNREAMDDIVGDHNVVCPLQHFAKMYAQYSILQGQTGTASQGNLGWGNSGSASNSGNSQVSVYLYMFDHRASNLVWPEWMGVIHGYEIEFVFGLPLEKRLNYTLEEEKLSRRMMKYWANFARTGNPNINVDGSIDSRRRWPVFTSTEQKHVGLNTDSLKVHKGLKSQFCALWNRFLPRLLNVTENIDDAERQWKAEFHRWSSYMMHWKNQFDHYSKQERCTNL
T5 sequence (P05067 672-713 limits assumed): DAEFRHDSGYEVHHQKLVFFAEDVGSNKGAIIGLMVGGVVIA
T2 sequence (P81908 whole entry): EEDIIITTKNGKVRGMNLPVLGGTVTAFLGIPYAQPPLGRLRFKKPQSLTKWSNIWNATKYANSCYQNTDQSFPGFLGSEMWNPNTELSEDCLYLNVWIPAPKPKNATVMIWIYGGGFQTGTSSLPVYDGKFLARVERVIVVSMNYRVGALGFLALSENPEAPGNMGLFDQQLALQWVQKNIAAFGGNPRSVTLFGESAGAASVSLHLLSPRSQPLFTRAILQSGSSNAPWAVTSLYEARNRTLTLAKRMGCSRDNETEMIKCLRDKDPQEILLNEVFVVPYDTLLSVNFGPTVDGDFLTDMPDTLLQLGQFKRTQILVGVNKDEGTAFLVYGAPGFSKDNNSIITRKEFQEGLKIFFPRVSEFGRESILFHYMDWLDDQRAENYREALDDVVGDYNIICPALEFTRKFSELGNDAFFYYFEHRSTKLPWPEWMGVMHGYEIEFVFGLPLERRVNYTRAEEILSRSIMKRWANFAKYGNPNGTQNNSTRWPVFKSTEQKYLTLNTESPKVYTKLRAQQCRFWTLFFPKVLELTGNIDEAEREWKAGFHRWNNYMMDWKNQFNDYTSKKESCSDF
T3 sequence (P56817 46-501): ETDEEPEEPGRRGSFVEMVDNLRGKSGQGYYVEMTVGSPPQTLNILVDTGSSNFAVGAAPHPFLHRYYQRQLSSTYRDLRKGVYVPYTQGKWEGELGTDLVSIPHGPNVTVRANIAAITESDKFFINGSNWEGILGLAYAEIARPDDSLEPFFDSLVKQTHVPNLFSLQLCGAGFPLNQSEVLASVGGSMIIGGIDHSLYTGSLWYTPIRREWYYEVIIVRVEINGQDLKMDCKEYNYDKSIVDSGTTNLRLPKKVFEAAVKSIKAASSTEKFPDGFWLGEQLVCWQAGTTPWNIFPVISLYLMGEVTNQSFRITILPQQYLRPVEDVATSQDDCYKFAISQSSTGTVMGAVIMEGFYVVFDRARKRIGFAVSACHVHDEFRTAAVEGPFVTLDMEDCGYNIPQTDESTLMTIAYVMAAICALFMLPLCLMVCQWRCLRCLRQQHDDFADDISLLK

| Compound | survival of PC12 cells against H2O2 induced oxidative stress (MTT) (PC12 cells [2]) [%] | SI (selectivity index) (AChE) | IC50 (AChE) [µM] | IC50 (BuChE) [µM] | Congo red absorbance wavelength (red shift) with Aβ42 (Aβ42 [3]; Aβ42 + compound 22 μM) [nm] | Congo red absorbance wavelength (red shift) with Aβ42 (Aβ42 [3]; Aβ42 + compound 44 μM) [nm] | inhibition of Aβ42 aggregation (ThT fluorescence) (Aβ42 [4]) [%] | Secondary structure content: Others (Aβ42 [5]) [%] | Secondary structure content: α-helix (Aβ42 [5]) [%] | Secondary structure content: Turn (Aβ42 [5]) [%] | Secondary structure content: β-sheet (parallel) (Aβ42 [5]) [%] | Secondary structure content: β-sheet (antiparallel) (Aβ42 [5]) [%] | inhibition in β-sheet formation (Aβ42 [5]) [%] | morphology of Aβ42 aggregates by TEM (Aβ42 [6]) | survival of PC12 cells against Aβ42 cytotoxicity (MTT) (PC12 cells [1]; rat, 40 μM) [%] | also measured |
| --- | --- | --- | --- | --- | --- | --- | --- | --- | --- | --- | --- | --- | --- | --- | --- | --- |
| COC(=O)C1=CO[C@@H](C)[C@H]2CN3CCc4c([nH]c5ccccc45)[C@@H]3C[C@H]12 [Ajmalicine] | 89 | 1.55 | 3.5 ± 1.41 | 5.44 ± 1.75 | 510 | 510 | 57 | 53.1 | 0.0 | 11.7 | 0.0 | 35.2 | 53 | shorter, loose, and less Aβ42 fibrils along with small oligomers | – | survival of PC12 cells against Aβ42 cytotoxicity (MTT) (PC12 cells [1]; compound 40 μM, Aβ42 fibrils 40 μM): 67%; AChE inhibition (AChE; at 50 μM): 90%; inhibition of BACE-1 activity (BACE-1; at 50 μM): 69%; MAO-B inhibition (MAO-B; at 40 μM): 89% |
| COC(=O)[C@H]1[C@H]2C[C@@H]3c4[nH]c5cc(OC)ccc5c4CCN3C[C@H]2C[C@@H](OC(=O)c2cc(OC)c(OC)c(OC)c2)[C@@H]1OC [Reserpine] | 93 | 1.65 | 1.7 ± 2.08 | 2.8 ± 1.84 | 510 | 510 | – | 54.9 | 0.0 | 17.8 | 0.0 | 27.3 | 64 | shorter, loose, and less Aβ42 fibrils along with small oligomers | 92 | inhibition at 50 µM (AChE; read-out: AChE inhibition): 96%; inhibition at 50 µM (BACE-1): 47%; inhibition at 40 µM (MAO-B): 89%; inhibition at 44 µM (Aβ42 [4]): 69% |
| N[C@@H](CCC(=O)N[C@@H](CS)C(=O)NCC(=O)O)C(=O)O [glutathione] | 91 | – | – | – | – | – | – | – | – | – | – | – | – | – | – | – |
| NCCCS(=O)(=O)O [homotaurine] | – | – | – | – | – | – | – | – | – | – | – | – | – | – | 58 | – |
| Tannic acid | – | – | – | – | – | – | 85 | – | – | – | – | – | – | – | – | – |
